# From patent publication US6270780A, “Cosmetic compositions containing resveratrol” (Chesebrough-Pond's USA Co., division of Conopco, priority 1998, dated 2001)
# Read-outs that look alike come from different tables or passages of the source.
# Test system: Transglutaminase (TG-1)
# Assay: ELISA based TG-1 assay, differentiation of keratinocytes
# Type: cell-based, human
# Excerpt: Methodology for Transglutaminase Measurement
# During the process of terminal differentiation in the epidermis, a 15 nm thick layer of protein, known as the cornified envelope (CE) is formed on the inner surface of the cell periphery. The CE is composed of numerous distinct proteins which have been cross-linked together by the formation of N-((-glutamyl) lysine isodipeptide bonds catalyzed by the action of at least two different transglutaminases expressed in the epidermis. Transglutaminase (TG-1) is expressed in abundance in the differentiated layers of the epidermis, especially the granular layer, but is absent in the undifferentiated basal epidermis. Thus, TG-1 is a useful marker of epidermal keratinocyte differentiation with high TG-1 levels indicating a more differentiated state. An ELISA based TG-1 assay, using a TG-1 antibody, was used to assess the state of differentiation of the cultured keratinocytes in the examples that follow.
# The level of TG-1 was measured as follows. Keratinocytes were obtained as described in Example 2. For the experiment, about 30,000 cells were plated into each well of 6 well plates and grown for five days, until the cells reach about 20-30% confluence. 2 ml/well of fresh KGM were added daily with 2 μl of 2-50 mM resveratrol in DMSO for 3 days. Control wells also received 2 μl of DMSO. After 3 days of treatment, cells were washed twice with PBS and placed in freezer for 2 hours. Cells were then thawed for 2 hours. DNA content of the cells were quantitated by using the DNA binding flurophore, bis-benzimidazole (Hoechst 33258) and measuring the specific fluorescence of the DNA-bound flurophore at 450 nm (excitation at 360 nm).
# TG-1 levels of the cells in the wells were determined using the TG-1 specific monoclonal antibody (BC1) (first antibody) (obtained from Amersham Life Sciences) and using a peroxidase labeled rabbit antimouse IgG fragment (second antibody). The plates were blocked by 5% nonfat milk in TBS (Tris buffered saline, 0.01 M Tris, 0.150 M sodium chloride, pH 8.0) for one hour followed by 2 hour incubation with the first antibody (1:4,000 fold dilution) in 1% milk/TBS at room temperature. After rinsing the plates three times with 1% milk/TBS containing 0.05% Tween 20, the plates were incubated with 1:4000 dilution of the second antibody at room temperature for two hours. The plates were rinsed three times with 1% milk/TBS/Tween and three times with TBS. Color was developed by incubation with o-phenylene diamine and hydrogen peroxide. The absorbance was read at 492 nm on a Ultrospec 3000 spectrophotometer (Pharmacia Biotech) and TG-1 levels were calculated as Abs/DNA fluorescence. The mean±standard deviation of at least 3 separate wells were used for calculation and statistical analysis of the data. Values were expressed as absorbance for TG-1 per arbitrary unit of DNA fluorescence of triplicate wells±standard deviation. Results were also expressed as % of control.
smiles,measurement,setting,value
"Oc1ccc(/C=C/c2cc(O)cc(O)c2)cc1 [Resveratrol, 3,4'5-stilbenetriol]",transglutaminase expression of keratinocytes vs control,"Experiment 1, 10 μM",not significantly different from control
same,TG-1 levels/μg DNA,"Experiment 1, 10 μM, 3 days",8.49 ± 1.77 /μg DNA
same,TG-1 levels/μg DNA,"Experiment 1, 25 μM, 3 days",10.92 ± 2.29 /μg DNA
same,TG-1 levels/μg DNA,"Experiment 1, 50 μM, 3 days",22.2 ± 1.50 /μg DNA
same,TG-1 levels/μg DNA,"Experiment 2, 2 μM, 3 days",3.42 ± 0.42 /μg DNA
same,TG-1 levels/μg DNA,"Experiment 2, 5 μM, 3 days",3.51 ± 0.41 /μg DNA
same,TG-1 levels/μg DNA,"Experiment 2, 10 μM, 3 days",3.61 ± 0.17 /μg DNA
same,TG-1 levels/μg DNA,"Experiment 2, 25 μM, 3 days",4.69 ± 0.21 /μg DNA
same,TG-1 levels/μg DNA,"Experiment 2, 50 μM, 3 days",4.65 ± 0.46 /μg DNA
same,keratinocyte differentiation,"Experiment 2, all concentrations of 2 μM and higher",significantly increased keratinocyte differentiation
same,activity at 10 µM,"Homo sapiens, Keratinocyte, 72 h, Experiment 1, 10 μM, 3 days, read-out: TG-1 levels, % of control",126%
same,activity at 25 µM,"Homo sapiens, Keratinocyte, 72 h, Experiment 1, 25 μM, 3 days, read-out: TG-1 levels, % of control",162%
same,activity at 50 µM,"Homo sapiens, Keratinocyte, 72 h, Experiment 1, 50 μM, 3 days, read-out: TG-1 levels, % of control",329%
same,activity at 2 µM,"Homo sapiens, Keratinocyte, 72 h, Experiment 2, 2 μM, 3 days, read-out: TG-1 levels, % of control",179%
same,activity at 5 µM,"Homo sapiens, Keratinocyte, 72 h, Experiment 2, 5 μM, 3 days, read-out: TG-1 levels, % of control",184%
same,activity at 10 µM,"Homo sapiens, Keratinocyte, 72 h, Experiment 2, 10 μM, 3 days, read-out: TG-1 levels, % of control",189%
same,activity at 25 µM,"Homo sapiens, Keratinocyte, 72 h, Experiment 2, 25 μM, 3 days, read-out: TG-1 levels, % of control",246%
same,activity at 50 µM,"Homo sapiens, Keratinocyte, 72 h, Experiment 2, 50 μM, 3 days, read-out: TG-1 levels, % of control",243%
same,transglutaminase expression of keratinocytes,all other concentrations,significantly increased transglutaminase expression of keratinocytes
